Reference: patent US20040229816A1, “Anti-angiogenic and anti-tumoral properties of beta and gamma secretase inhibitors” (priority 2003, published 2004)
Where two headings read alike, the source gives them in different places. Numbered stars: 1 amine (or outer) side, 2 acyl side, 3 side chain; on linkers, the order of the positions; unused ones are H or OH. Square brackets hold non-standard residues; d marks the D form. Peptide text beside a SMILES is read from it. LeuΨ(S-CHOHCH2)Ala = CC(C)C[C@H](N[*:1])[C@@H](O)C[C@@H](C)C(=O)[*:2]; Sta = CC(C)C[C@H](N)[C@@H](O)CC(=O)O

Experiments:
[1] = test system: human brain endothelial cells; assay: viability of human brain endothelial cells (LDH activity in culture medium); type: cell-based; details: 24 hours; for cellular toxicity / viability of human brain endothelial cells versus control: doses employed; for LDH activity in the culture medium, ANOVA main effect: various doses
Protocol: (§1) Primary cultures of human brain endothelial cells were plated at a density of 10^4 cells/[…] of EBM 4% in 96 wells culture plates and treated with various doses of γ-secretase and β-secretase inhibitors as indicated in the figure legends. Following 24 hours in culture, the EBM covering the cells was removed and assayed for Lacticodehydrogenase (LDH) activity using the cytotoxicity detection kit (Roche Diagnostic Corporation, Ind.). Cells were covered with […] of EBM 4% and cellular proliferation measured using the Quick cell proliferation assay kit (Biovision Research Products, Calif.).

Notch = details: cited from earlier work
explants of rat aortae = assay: rat aortic ring model of angiogenesis (microvessel outgrowths); type: cell-based, Sprague Dawley rats
Protocol: Twenty four well tissue culture grade plates (Nalgene International, NY) were covered with […] of Matrigel (Becton-Dickinson, Bedford, Mass.) and allowed to gel for 30 min at 37° C., 5% CO2. Briefly, thoracic aortae were excised from 9 month-old Sprague Dawley rats. After removing the fibroadipose tissue, arteries were sectioned into 1 mm long cross sections, rinsed 5 times with EBM (Clonetics Corp.) containing 4% fetal bovine serum (FBS) and placed on the Matrigel coated wells. Artery rings were covered with an additional […] of Matrigel. After polymerization the Matrigel was covered with 1 mL of EBM (4% FBS) containing various doses of Z-VVL-CHO, OM99-2, P10-P4′statV, DAPT, or L-685,458 as indicated in the figure legends (the culture medium was changed every 3 days). Pictures were taken at day 4, 5 and 6 using a 4×objective. Microvessel outgrowth area was quantified using the Image Pro Plus software. Briefly, ring cultures were photographed using a digital video camera linked to an Olympus BX60 microscope. The outgrowth area was delineated and measured with the Image Pro Plus software by using a strategy of microvessel outgrowth detection based on difference in color intensities between the outgrowths, the Matrigel and the artery ring. The artery rings were manually selected and excluded from the area of measurement and the color intensity threshold was adjusted to selectively measure the area occupied by the microvessel outgrowths. Results were expressed as a percentage of the area occupied by microvessel outgrowths at day 4 in control condition.

presenilin = details: cited from earlier work
[2] = test system: Human middle cerebral artery endothelial cells; assay: capillary morphogenesis assay; type: cell-based
Protocol: Two hundred μl of Matrigel were placed into each well of a 24-well culture plate at 4° C. and allowed to polymerize by incubation at 37° C. Human middle cerebral artery endothelial cells (5×104) were seeded on the Matrigel in 1 ml of EBM containing 4% fetal calf serum. The cells were incubated at 37° C. for 20 hours in a humidified 5% CO2 atmosphere in the presence or absence of various doses of γ-secretase and β-secretase inhibitors as indicated in the figure legends. The experiments were performed in quadruplicate for each treatment condition. For each culture, 2 randomly chosen fields were photographed using a 4×objective. An experimenter unaware of the different treatments measured the total length of tube structures in each photograph using the Image Pro Plus software (Media Cybernetic, Inc., Md.). Capillary network lengths for the different treatment conditions were expressed as the percentage of capillary network lengths obtained in the control condition.

APP [3] = assay: carboxyl-terminal APP fragments in human brain endothelial cell lysates (immunoblotting); type: cell-based; details: 5 μM, 24 hours
Protocol: (§2) Confluent human brain endothelial cells (grown on 75 cm2 flasks with EBM 4% FBS medium) were treated for 24 hours with 5 μM of Z-VVL-CHO, 5 μM of L-685,458, 5 μM of OM99-2, 5 AM of DAPT or went untreated (control). Experiments were done in quadriplicate for each treatment condition. 6E10 (Signet), a mAb that recognizes residues 1-17 of human Aβ (Van Nostrand et al., Nature, 341, 546-549, 1989) was used to immunoprecipitate soluble APP generated following cleavage by α-secretase from cell culture medium. Immunoprecipitated material was resolved on a 4-20% gradient SDS-PAGE, transferred to PVDF membranes and immunodetected with mAb 22C11 (Roche Diagnostics) that recognizes the amino acids 66-81 of the N-terminal portion of APP (Hibich, C., J. Biol. Chem., 268, 26571-26577, 1993). Human brain endothelial cells were lysed on ice using MPERTM reagent (Pierce) supplemented with 1 mM PMSF and 1 mM of sodium-orthovanadate. Samples were sonicated and centrifuged at 10,000 g for 30 min at 4° C. The protein content of the lysates was determined using the BCA Protein assay kit (Pierce). Total lysates ([…] of protein/sample) were separated on a 4-20% gradient SDS-PAGE and transferred to PVDF membranes and immunoprobed with mAb 22C11 in order to detect full length APP and also immunoprobed with an Anti-APP-CT20 (Calbiochem) antibody which recognizes the amino acid residues 751-770 of the carboxyl terminal region of APP (Pinnix et al. 2001; J. Biol. Chem., 276, 481).

APP [4] = assay: α-sAPP secretion by human brain endothelial cells (immunoprecipitation, immunoblotting); type: cell-based; details: 5 μM, 24 hours
Protocol: as §2

[5] = test system: human brain endothelial cells; assay: proliferation of human brain endothelial cells (Quick cell proliferation assay kit); type: cell-based; details: various doses, 24 hours
Protocol: as §1

γ-secretase [6] = details: cited from earlier work
[7] = test system: aspartyl protease cathepsin; details: cited from earlier work
BACE = BACE (Homo sapiens, UniProt P56817); details: cited from earlier work
Aβ = details: cited from earlier work
γ-secretase [8] = details: 7PA2 cells; cited from earlier work

Sequence of BACE (P56817 46-501, species assumed): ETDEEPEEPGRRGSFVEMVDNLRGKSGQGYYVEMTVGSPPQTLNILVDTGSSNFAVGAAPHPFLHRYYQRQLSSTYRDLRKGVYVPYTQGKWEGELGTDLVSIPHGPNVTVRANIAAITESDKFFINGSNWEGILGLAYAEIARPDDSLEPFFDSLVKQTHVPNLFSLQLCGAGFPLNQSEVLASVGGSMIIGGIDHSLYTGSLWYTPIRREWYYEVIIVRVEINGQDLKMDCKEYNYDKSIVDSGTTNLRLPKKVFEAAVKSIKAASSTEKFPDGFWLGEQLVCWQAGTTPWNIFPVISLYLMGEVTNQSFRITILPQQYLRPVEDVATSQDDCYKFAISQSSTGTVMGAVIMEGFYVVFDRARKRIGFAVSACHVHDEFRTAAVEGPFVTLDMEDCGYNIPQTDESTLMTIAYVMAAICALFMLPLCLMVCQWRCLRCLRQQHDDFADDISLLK

CC(C)C[C@H](NC(=O)[C@H](CC(N)=O)NC(=O)[C@@H](NC(=O)[C@@H](N)CCC(=O)O)C(C)C)[C@@H](O)C[C@@H](C)C(=O)N[C@@H](C)C(=O)N[C@@H](CCC(=O)O)C(=O)N[C@@H](Cc1ccccc1)C(=O)O [OM99-2, Glu-Val-Asn-Leu-ψ-Ala-Ala-Glu-Phe [ψ denotes replacement of CONH by (S)—CH(OH)CH2]] (H-EVN[LeuΨ(S-CHOHCH2)Ala]AEF-OH)
cellular toxicity / viability of human brain endothelial cells versus control [1]: without affecting their viability | LDH activity in the culture medium, ANOVA main effect [1]: significant main effect

CC(C)CC(NC(=O)C(Cc1ccccc1)CC(O)C(Cc1ccccc1)NC(=O)OC(C)(C)C)C(=O)NC(Cc1ccccc1)C(N)=O [L-685,458, {1S-Benzyl-4R-[1-(1S-carbamoyl-2-phenethylcarbamoyl)-1S-3-methylbutylcarba-moyl]-2R-hydroxy-5-phenyl-pentyl}carbamic acid tert-butyl ester]
Notch intracellular domain production (Notch): blocks | area covered by microvessel outgrowths versus control (explants of rat aortae; 1 μM): inhibited | area covered by microvessel outgrowths versus control (explants of rat aortae; 5 μM): inhibited | binding to presenilin (presenilin): binds to presenilin | capillary network length / capillary morphogenesis versus control ([2]; 5 μM, 20 hours): potent angiogenic effect | capillary morphogenesis ([2]; low dose): stimulated capillary morphogenesis | accumulation of carboxyl-terminal APP fragments (APP CTF) (APP [3]): stimulates | accumulation of carboxyl-terminal APP fragments (APP CTF) (APP [3]; listed as L-685-485): promoted the accumulation | secretion of α-sAPP (APP [4]): not | cellular toxicity / viability of human brain endothelial cells versus control [1]: without inducing cellular toxicity | LDH activity in the culture medium, ANOVA main effect [1]: no main effect | proliferation of human brain endothelial cells, dose dependence [5]: dose dependently inhibited | IC50 (γ-secretase [6]; read-out: Ab40 IC50): 0.048 µM | IC50 (γ-secretase [6]; read-out: Ab42 IC50): 0.067 µM | IC50 (γ-secretase [6]; read-out: Abtotal IC50): 0.017 µM | selectivity for γ-secretase than for the aspartyl protease cathepsin [7]: over a hundred-fold greater

H-Lys-Thr-Glu-Glu-Ile-Ser-Glu-Val-Asn-Stat-Val-Ala-Glu-Phe-OH [P10-P4′statV, H-Lys-Thr-Glu-Glu-Ile-Ser-Glu-Val-Asn-Stat-Val-Ala-Glu-Phe-OH [Stat=(3S,4S)-Statine]]
sprouting of microvessel outgrowths, overall / dose dependence (explants of rat aortae; day 4, 5 and 6): dose dependently and potently inhibited | IC50 (BACE): 0.03 µM

COC(=O)C(NC(=O)C(C)NC(=O)Cc1cc(F)cc(F)c1)c1ccccc1 [DAPM, N-[N-3,5-difluorophenacetyl]-L-alanyl-S-phenylglycine methyl ester]
early Aβ oligomerization (Aβ dimer and trimer formation) (Aβ): prevents | cellular toxicity / viability of human brain endothelial cells versus control [1]: without inducing cellular toxicity | IC50 (γ-secretase [8]): ~0.01 µM | proliferation of human brain endothelial cells, dose dependence [5]: dose dependently inhibited

CC(C)C[C@H](NC(=O)[C@H](CC(N)=O)NC(=O)[C@@H](NC(=O)[C@@H](N)CCC(=O)O)C(C)C)[C@@H](O)CC(=O)N[C@H](C(=O)N[C@@H](C)C(=O)N[C@@H](CCC(=O)O)C(=O)N[C@@H](Cc1ccccc1)C(N)=O)C(C)C [GL189, H-Glu-Val-Asn-Statine-Val-Ala-Glu-Phe-NH] (H-EVN[Sta]VAEF-NH2)
cellular toxicity / viability of human brain endothelial cells versus control [1]: without affecting their viability
